{"source": "patent US20160228444A1", "about": "“NUCLEOSIDE ANALOGS AND USES THEREOF” (Ramot at Tel-Aviv University Ltd., priority 2015, published 2016)", "key": {"VEGF": {"test_system": "VEGF", "assay": "VEGF immunohistochemistry in tumor and heart of xenograft mice", "format": "in vivo", "settings": "FIG. 4F", "procedure": "(§1) The pro-angiogenic factors basic fibroblast growth factor (bFGF) and vascular endothelial growth factor (VEGF) are potent angiogenic stimulators. The expression of bFGF in the tumor and in the heart was evaluated by Western blot and qRT-PCR analyses and expression of VEGF by IHC."}, "HO-1": {"test_system": "HO-1", "assay": "HO-1 protein and mRNA in tumor and heart of xenograft mice (Western blot, qRT-PCR)", "format": "in vivo", "settings": "heart", "procedure": "(§2) Tumors and hearts of the mice were rapidly removed, frozen on dry ice and kept at −70° C. Tissue was then homogenized and RNA and proteins extracted using the NucleoSpin® RNA/Protein kit according to the manufacturer's protocol (Macherey-Nagel, GmbH & Co KG).\n(§3) Total RNA ([…]) was primed by oligo dT and reverse-transcribed by Verso cDNA kit according to the manufacturer's protocol (Thermo Scientific). Analyses of qPCR were performed with Kapa Sybr® Fast (Kapa Biosystems) on a Step One Plus thermocycler (Applied Biosystems). The comparative threshold method was used to calculate the relative gene expression. Values were normalized against glyceraldehyde 3-phosphate dehydrogenase (GAPDH). Expression of the GAPDH mRNA in each individual sample was used to normalize the dataset. The sequences of the primers were as follows: […]\n(§4) Protein levels in the samples were determined with the BCA protein assay kit (Pierce). The samples were subjected to Western blot analyses. The expression of proteins was visualized using their specified primary antibodies followed by the secondary IgG IRDye® 680DX antibody. Each detected band was quantified using the Odyssey Infrared Imaging System (LI-COR Biosciences) and normalized to the level of actin. The fold increase of a specific protein was determined by the ratio of the band intensity obtained from treated and untreated samples.\nThe effect of the drugs on the expression of genes associated with cell survival and death was examined by following changes in transcription and protein expression in tissue samples taken from the mice with glioblastoma xenografts. Heme oxygenase (HO-1) is known to play a protective role in the heart, whereas, in many cancers it is expressed and promotes growth and survival of neoplastic cells."}, "[1]": {"test_system": "U251 human glioblastoma xenograft", "assay": "Glioblastoma xenograft model (survival, body weight, tumor volume, tumor weight, Ki-67)", "settings": "for tumor volume of vehicle-treated group relative to treated group: from day 11, FIG. 3C", "protocol": "Xenograft of glioblastoma: 8- to 10-week-old male Hsd athymic FOXN (Harlan, Jerusalem, Israel) were inoculated sc in the flanks with 5×10^6 U251 cells. Tumor length (L) and width (W) were measured with a caliper twice weekly. Tumor volumes were calculated according to the formula: (L×W2)/2. When the tumor was established (volume of 50-100 mm^3) the mice were randomly divided into six groups treated with: vehicle control (saline); ip Dox 4 mg/kg once weekly; po AN446 25 mg/kg thrice a week; po AN7 50 mg/kg thrice a week; combination of AN446+Dox (4 mg/kg ip Dox once a week and 25 mg/kg po AN446 thrice a week); AN7+Dox (4 mg/kg ip Dox once a week and 50 mg/kg po AN7 thrice weekly). Untreated, non-bearing tumor naive mice were maintained under the same conditions. The experiment was terminated after 25 treatment days, the mice were sacrificed under CO2 and their tumors and hearts were removed, weighed and divided into parts dedicated for immunohistochemistry (IHC) and the rest were frozen (−80° C.) for Western blot and Quantitative PCR (qRT-PCR) analyses.\nInactivation of avidin-biotin nonspecific binding was prevented by a blocking kit, according to the manufacturer's protocol (Vector Laboratories). […] The secondary antibody was biotin conjugated goat anti-rabbit or anti-mouse IgG. Slides were then stained with the ABC peroxidase system, developed with diaminobenzidine (DAB) (Vector Laboratories) and counterstained with hematoxylin (Bio-Optica, Milano, Italy). The slides were examined using an Olympus BX 52 light microscope, and images were taken with an Olympus DP50 digital camera system.\nMice were implanted subcutaneously with U251 cells and when the tumors reached 50-100 mm^3 treatments were initiated. Survival was evaluated by the Kaplan-Meier end-product analysis, where treatment failure (the experimental end points) was a loss of ˜20% body weight, or a tumor volume of >1 cm^3."}, "c-Myc": {"test_system": "c-Myc", "assay": "c-Myc and p-c-Myc (Thr 58) Western blot in tumor and heart of xenograft mice", "format": "in vivo", "procedure": "as §4\nThe c-Myc protein is an important regulator of normal cell physiology and in tumor cells it plays an important role in activating oncogenic pathways [Soucek & Evan, Curr Opin Genet Dev 2010, 20:91-95]."}, "bFGF": {"test_system": "bFGF", "assay": "bFGF protein and mRNA in tumor and heart of xenograft mice (Western blot, qRT-PCR)", "format": "in vivo", "settings": "for expression of mouse bFGF protein in the heart: FIG. 4D; for expression of bFGF in tumors / bFGF mRNA in the tumor: tumor; for bFGF mRNA in the tumor: FIG. 6", "procedure": "as §2, §3, §4, §1"}, "T47D cells": {"test_system": "T47D cells", "assay": "Median-effect drug interaction, Hoechst viability, 72 h", "format": "cell-based, human", "settings": "for IC50: Homo sapiens", "procedure": "(§5) The ratios of the drug combination were based on the ratio of their IC50 of each drug alone. Cell viability was determined by MTT assay, as described hereinabove. The drugs were added to the cells and incubated for 72 h.\n(§6) Drug interaction in adherent cells was evaluated as above except that the viability was determined by Hoechst assay."}, "TLR4": {"test_system": "TLR4", "settings": "24 hours, concentrations based on the IC50, FIG. 15"}, "U251 cells": {"test_system": "U251 cells", "assay": "Hoechst viability assay 72 h / median-effect combination study", "settings": "Homo sapiens, U-251, 72 h, read-out: IC50 value for viability in U251 cells after 72 hours", "protocol": "Hoechst assay: 22RV-1, MCF-7, MCF-7DX, 4T1, U251, and T47D cells (3×10^3 cells/well) and NCI-N87 (8×10^3 cells/well) were seeded in tissue culture in growth medium for 24 h in 96-well plates (in triplicate) and then exposed to different concentrations (titration) of the tested drug for 72 h at 37° C. The plates were then rinsed with PBS and fixed with 100 ml of 70% ethanol for 30 min. […] The fluorescence was measured (excitation at 390 nm and emission at 460 nm) with a Synergy III Fluorometer-Elisa reader (BioTek Instruments, Inc. Germany).\nThe Median Effect Analysis (MEA) for a constant combination ratio was used for drugs interaction and the combination index (CI) determination.\nThe average values of three independent experiments were calculated and analyzed with CalcuSyn software."}, "MDA-231 cells": {"test_system": "MDA-231 cells", "assay": "Median-effect drug interaction, Hoechst viability, 72 h", "format": "cell-based, human", "settings": "for IC50: Homo sapiens", "procedure": "as §5, §6"}}, "note": "Read-outs that look alike come from different tables or passages of the source.", "data": [{"molecule": "CCCC(=O)OCOP(=O)(OCC)OCC", "note": "[AN7, butyroxymethyl diethylphosphate]", "values": [{"measurement": "VEGF expression in the heart", "setting": "VEGF", "result": "elevated"}, {"measurement": "HO-1 expression in the heart", "setting": "HO-1; co-treatment with Dox", "result": "increased the expression of this enzyme to a significantly higher level"}, {"measurement": "HO-1 mRNA in the heart, elevation of basal expression level", "setting": "HO-1; co-treatment with Dox", "result": "1.76±0.36", "unit": "fold"}, {"measurement": "HO-1 expression in the heart (decrease)", "setting": "HO-1; single agent, FIGS. 4D, 4E", "result": "did not significantly change"}, {"measurement": "survival of mice when added to Dox treatment", "setting": "[1]; added to Dox 4 mg/kg ip once a week, day 25, FIG. 3A", "result": 100, "unit": "%"}, {"measurement": "body weight loss when added to Dox treatment", "setting": "[1]; added to Dox 4 mg/kg, FIG. 3B", "result": "significant attenuation of body weight loss"}, {"measurement": "Ki-67 positive (proliferating) cells in tumors", "setting": "[1]; in combination with Dox, FIG. 3F", "result": "reduced the proliferating cells to a level significantly lower than any of the single drug treatments"}, {"measurement": "tumor volume of vehicle-treated group relative to treated group", "setting": "[1]; in combination with Dox", "result": 3, "unit": "fold"}, {"measurement": "Ki-67 positive cells in tumors", "setting": "[1]; single agent vs vehicle, FIGS. 3E, 3F", "result": "considerably more Ki-67 positive cells were detected in tumors of the vehicle-treated mice"}, {"measurement": "tumor volume of vehicle-treated group relative to treated group", "setting": "[1]; single agent", "result": 2, "unit": "fold"}, {"measurement": "survival of mice until end of experiment (day 25)", "setting": "[1]; single agent: AN446 25 mg/kg or AN7 50 mg/kg po thrice weekly, Dox 4 mg/kg ip once a week, FIG. 3A", "result": 100, "unit": "%"}, {"measurement": "c-Myc protein expression in the hearts", "setting": "c-Myc; heart, FIG. 5B", "result": "not affected"}, {"measurement": "c-Myc protein expression in tumors", "setting": "c-Myc; tumor, FIG. 5A", "result": "decreased dramatically"}, {"measurement": "expression of mouse bFGF protein in the heart", "setting": "bFGF; co-treatment with Dox", "result": "significantly increased its expression to a level higher than that observed in naive or vehicle-treated mice"}, {"measurement": "expression of mouse bFGF protein in the heart", "setting": "bFGF; single agent", "result": "unchanged"}, {"measurement": "expression of bFGF in tumors", "setting": "bFGF; combination with Dox", "result": "further diminished"}, {"measurement": "bFGF mRNA in the tumor", "setting": "bFGF; combined treatment with Dox", "result": "suppressed it significantly further"}, {"measurement": "bFGF mRNA in the tumor", "setting": "bFGF; single agent", "result": "significantly reduced the bFGF mRNA"}, {"measurement": "expression of bFGF in tumors", "setting": "bFGF; single agent, FIGS. 4A, 4B", "result": "decreased significantly"}]}, {"molecule": "O=C(CCCCCCC(=O)Nc1ccccc1)NO", "note": "[SAHA, suberanilohydroxamic acid]", "values": [{"measurement": "IC50", "setting": "T47D cells; in combination with Dox, read-out: com IC50", "result": 0.13, "unit": "µM"}, {"measurement": "TLR4 expression in MDA-231 cells", "setting": "TLR4", "result": "no apparent effect on TLR4 expression"}]}, {"molecule": "CCCC(CCC)C(=O)O", "note": "[Valproic acid, valproic acid]", "values": [{"measurement": "IC50", "setting": "U251 cells", "result": 3000, "unit": "µM"}, {"measurement": "IC50", "setting": "MDA-231 cells; MDA-MB-231, MDA-231, in combination with paclitaxel, read-out: com IC50", "result": "1600 ± 10", "unit": "µM"}, {"measurement": "IC50", "setting": "MDA-231 cells; MDA-MB-231, MDA-231, single agent, Table 3, read-out: IC50", "result": "3900 ± 200", "unit": "µM"}, {"measurement": "CI (combination index with paclitaxel)", "setting": "MDA-231 cells; MDA-231", "result": 0.8}, {"measurement": "CI (combination index with paclitaxel)", "setting": "T47D cells", "result": 1.1}, {"measurement": "IC50", "setting": "T47D cells; in combination with paclitaxel, read-out: com IC50", "result": "1800 ± 100", "unit": "µM"}, {"measurement": "IC50", "setting": "T47D cells; single agent, Table 3, read-out: IC50", "result": "4400 ± 300", "unit": "µM"}]}, {"molecule": "Nc1ccccc1NC(=O)c1ccc(CNC(=O)OCc2cccnc2)cc1", "note": "[entinostat]", "values": [{"measurement": "IC50", "setting": "U251 cells", "result": 2, "unit": "µM"}, {"measurement": "TLR4 expression in MDA-231 cells", "setting": "TLR4", "result": "no apparent effect on TLR4 expression"}]}, {"molecule": "C/C=C1\\NC(=O)[C@H]2CSSCC/C=C/[C@H](CC(=O)N[C@H](C(C)C)C(=O)N2)OC(=O)[C@H](C(C)C)NC1=O", "note": "[romidepsin]", "values": [{"measurement": "IC50", "setting": "U251 cells", "result": 0.001, "unit": "µM"}]}]}
